Patent publication US20070179113A1, “GM-CSF gene therapy for Crohn's disease using an improved regulated expression system” (Schering Aktiengesellachaft, priority 2005, published 2007)

How the values were obtained:
[1] = system: Mx1 RNA in murine L929 cells; test: Mx1 RNA induction in vitro in L929 cells (TaqMan RT-PCR); format: cell-based
Protocol: FIG. 5 illustrates Mx1 RNA induction in vitro (in L929 cells) by mIFN-β. L929 cells were seeded at 5×10^5 cells in 6 well plates and stimulated with increasing amounts of purified recombinant mIFN-β protein. Four hours after treatment the cells were harvested, RNA isolated, and Mx1 RNA quantitated by TaqMan analysis. Mx1 RNA expression is plotted as the fold increase relative to GAPDH RNA.
A quantitative PCR/RT-PCR assay was developed to quantitate the levels of Mx1 mRNA in murine PBMC's. Specifically, peripheral blood mononuclear cells (PBMCs) were isolated from mice treated with either mIFN-β protein or following gene-based delivery of the mIFN-β gene. Blood samples obtained from treated mice were centrifuged on a ficoll cushion for 25 minutes at 2,000 rpm. Purified PBMCs were pelleted and RNA for the Mx1 assay was purified using the “RNAeasy” mini extraction kit from Qiagen. The RNA was stored in H2O at −80° C. Mx1 RT-PCR was performed using TaqMan® chemistry and analysis was done on the Applied Biosystems (ABI) PRISM® 7700 Sequence Detection instrument. For reverse transcription of the RNA and amplification of cDNA, the “One-step TaqMan® RNA” kit from ABI was used. […] The samples were analyzed with an Mx1-specific probe/primer combination. Mx1 expression was normalized to GAPDH expression measured in parallel using a standard assay from ABI. […]

[2] = system: IP-10; test: IP-10 plasma level after bolus mIFN-β protein (ELISA); format: in vivo, C57BL/6 mice
Protocol: (§1) C57BL/6 mice were administered 15, 150, or 500 ng of purified recombinant mIFN-β protein (specific activity=2.0×10^8 units/mg) by either i.v. (via tail vein) or i.m. injection (n=3 mice per group). The mice were bled at 2, 4, 6, 12, 24, and 48 hours post-injection, and the plasma levels of IP-10 and JE were measured by ELISA (R&D Systems).

[3] = system: JE; test: JE plasma level after bolus mIFN-β protein (ELISA); format: in vivo, C57BL/6 mice
Protocol: as §1

[4] = Luciferase reporter gene assay for activity of purified mIFN-β protein; format: cell-based
Protocol: Specifically, the gene encoding mIFN-β was cloned into a pCEP4 expression vector (Invitrogen). The expression plasmid encoding mIFN-β was transiently transfected into 293E cells (Edge Biosystems) using X-tremeGene Ro-1539 Transfection Reagent (Roche). Murine IFN-β protein was purified from the medium by ion-exchange chromatography and by hydrophobic-interaction chromatography. The product was sialyzed and concentrated against dilution buffer (50 mM sodium acetate, pH 5.5, 150 mM sodium chloride, and 5% polypropylene glycol) and sterile filtered. Aliquots of the purified protein were stored at −80° C. The activity of the purified protein was assessed using a luciferase reporter gene assay (Hardy et al. (2001) Blood 97:473-482), using a commercial mIFN-β reference standard from Access Biomedical (San Diego, Calif.). The specific activity of the purified protein was 2×10^8 units/mg.
The positive control used for this study was Prednisolone, 2.5 mg/kg, (Sigma, St. Louis) administered by IP injection twice daily, beginning on day 1, until the end of the study. For mIFN-β protein delivery, the mice were given SC injections of purified recombinant mIFN-β protein every other day, starting on day 1 of the study (100,000 or 300,000 IU per animal per injection in 100 ul vehicle buffer). […]

mIFN-β: purified recombinant murine interferon-beta protein expressed in 293E cells
increase in the level of Mx1 RNA [1]: 100 fold | EC50 of Mx1 RNA induction ([1]; 4 hours treatment): approximately 50 pg/ml | time by which plasma IP-10 dropped to background ([2]; each of three doses): ≤ 24 h | increase of IP-10 levels ([2]; high dose delivered i.v.): 3000 fold | time of strong induction of IP-10 after administration ([2]; i.v. or i.m.): 2 h | time by which plasma JE dropped to background ([3]; each of three doses): ≤ 24 h | time of strong induction of JE after administration ([3]; i.v. or i.m.): 2 h | specific activity of the purified protein [4]: 2×10^8 units/mg
